Data: PMC4744035, “In Vivo, In Vitro, and In Silico Characterization of Peptoids as Antimicrobial Agents” (PLoS ONE, 2016)
pIC50: −log10 of the molar value. Read-outs that look alike come from different tables or passages of the source. Ends that are not written are not given here.

What was measured:
[1] = test system: LPS (P. aeruginosa); parameters: method as in PMID 8702613; details: divalent cation; read-out: I50 (affinity for LPS); cited from earlier work
[2] = test system: 20 bacterial strains (13 Gram-negative, 7 Gram-positive)
Description: The MICs of test agents were measured using a modified broth micro-dilution method in Difco Mueller Hinton medium, on a panel of bacterial pathogens that were both susceptible and resistant to common antibiotics (S1 File). Briefly, serial dilutions were performed in 0.01% acetic acid containing 0.2% bovine serum albumin at 10-fold the desired final concentration. Ten μL of the 10-fold concentrated test reagents were added to each well of a 96-well polypropylene microtitre plate containing 90 μL of Mueller Hinton media per well. Bacteria were added to the plate from an overnight culture at a final concentration of 2–7 x 10^5 CFU/mL and incubated overnight at 37°C. The MIC is defined as the concentration at which no growth was observed.
Screening of peptoid antimicrobial activity against a panel of multidrug resistant superbugs was done according to the protocol described in the manuscript. The bacterial strains used in this panel included; P. aeruginosa PAO1 strain H103 [1], P. maltophilia ATCC#13637, S. aureus ATCC#25923 [1], E. faecalis ATCC#29212 [2], and E. cloacae 218R, constitutively expressing Class C chromosomal β-lactamase, were from the Hancock lab strains collection. An MRSA clinical isolate was kindly provided by Anthony Chow (Vancouver General Hospital, Vancouver, Canada). Two Klebsiella pneumoniae and two E. coli clinical isolates expressing extended spectrum β-lactamases (ESBL) were kindly provided by George Zhanel (Health Sciences Centre, Winnipeg, Canada). Vancomycin-resistant clinical isolates of Enterococcus faecalis and E. faecium were obtained from Ana M. Paccagnella (BC Centre for Disease Control, Vancouver, Canada). Three clinical isolates (#9, #198 and #213) of multi-drug resistant P. aeruginosa, were kindly provided by Carlos Kiffer (University of São Paulo, Brazil). […] Three P. aeruginosa clinical isolates of the Liverpool epidemic strain (LES) (H1027, H1030 and LES400) were all kindly provided by Craig Winstanley (University of Liverpool, UK). […] All tested bacterial strains were categorized as biohazard level 2 pathogens.

[3] = test system: S. aureus C623 (MRSA); assay: microbe, parasite or virus in culture
Method in brief: (§1)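 Minimum inhibitory concentrations came from overnight 37°C cultures in Mueller Hinton medium seeded at 2–7 x 10^5 CFU/mL.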

[4] = test system: E. coli 64771 (ESBL); assay: microbe, parasite or virus in culture
Method in brief: as §1

[5] = test system: P. aeruginosa H1027 (MDR); assay: microbe, parasite or virus in culture
Method in brief: as §1

[6] = test system: P. maltophilia ATCC13637; assay: microbe, parasite or virus in culture
Method in brief: as §1

[7] = test system: E. faecium mic80 (VRE); assay: microbe, parasite or virus in culture
Method in brief: as §1

[8] = test system: E. coli 63103 (ESBL); assay: microbe, parasite or virus in culture
Method in brief: as §1

[9] = test system: P. aeruginosa 213 (MDR); assay: microbe, parasite or virus in culture
Method in brief: as §1

[10] = test system: P. aeruginosa H103 (wild type); assay: microbe, parasite or virus in culture
Method in brief: as §1

[11] = test system: E. cloacae 218R Class C β-lactamase; assay: microbe, parasite or virus in culture
Method in brief: as §1

[12] = test system: S. aureus ATCC25923; assay: microbe, parasite or virus in culture
Method in brief: as §1

[13] = test system: LPS (P. aeruginosa); assay: Dansyl polymyxin B (DPX) displacement assay, LPS binding; details: DPX bound to P. aeruginosa LPS; for pIC50: read-out: I50 (concentration that displaces 50% of LPS-bound DPX)
Description: The Dansyl polymyxin B (DPX) displacement assay was carried out as described earlier. In brief, the fluorescence of DPX (Invitrogen) bound to LPS (P. aeruginosa) was measured by using a Luminescence spectrometer LS 50B (Perkin Elmer) with excitation and emission-wavelengths of 340 nm and 485 nm, respectively. A predetermined amount of DPX, resulting in 90% saturation of LPS, was added to 1 mL of 3 μg/mL of purified LPS. Small aliquots (5 μL of 1 μg/mL) of test compounds were added under constant stirring in the cuvette, and the displacement of DPX was measured for 30–60 seconds as a decrease in fluorescence. The process was repeated until maximum displacement was reached.
The ability of other cationic molecules to displace DPX molecules bound to LPS (monitored by reduction in fluorescence) assesses their relative ability to bind to LPS [33, 34]. While the highly cationic MSI-78 (+10 charge) displaced 100% of bound DPX (equivalent to that of polymyxin B), peptoid 1 and MX-226 displaced 71% and 73% of bound DPX, respectively. […] A second parameter characterizing the LPS/polycation interaction is the I50, which is defined as the concentration of a polycation that displaces 50% of LPS-bound DPX. The I50 is inversely related to the relative affinity of each molecule for binding sites on LPS.

[14] = test system: K. pneumonia 61962 (ESBL); assay: microbe, parasite or virus in culture
Method in brief: as §1

[15] = test system: P. aeruginosa LES400 (MDR); assay: microbe, parasite or virus in culture
Method in brief: as §1

[16] = test system: P. aeruginosa 9 (MDR); assay: microbe, parasite or virus in culture
Method in brief: as §1

[17] = test system: E. faecalis W61950 (VRE); assay: microbe, parasite or virus in culture
Method in brief: as §1

[18] = test system: P. aeruginosa 198 (MDR); assay: microbe, parasite or virus in culture
Method in brief: as §1

[19] = test system: E. faecium T62764 (VRE); assay: microbe, parasite or virus in culture
Method in brief: as §1

[20] = test system: E. faecalis ATCC29212; assay: microbe, parasite or virus in culture
Method in brief: as §1

[21] = test system: P. aeruginosa H1030 (MDR); assay: microbe, parasite or virus in culture; details: P. aeruginosa H1030 (MDR)
Method in brief: as §1

[22] = test system: E. faecalis F43559 (VRE); assay: microbe, parasite or virus in culture
Method in brief: as §1

[23] = test system: K. pneumonia 63575 (ESBL); assay: microbe, parasite or virus in culture
Method in brief: as §1

[24] = test system: E. coli ATCC 35218; format: cell-based
Method in brief: (§2)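 MICs determined by 2:1 serial broth microdilution in cation-adjusted Mueller-Hinton broth per CLSI M7-A6, using inoculum at 1 x 10^6 CFU/mL mixed 1:1 with peptoid solution. Three independent replicates, each with two parallel trials.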

[25] = test system: B. subtilis ATCC 6633; format: cell-based
Method in brief: as §2

[26] = test system: erythrocytes; assay: Hemolytic activity (HD10/HD50); format: cell-based
Text: Table 1 Characteristics of antimicrobial peptoids, screened for activity against B. subtilis and E. coli bacterial strains. | column: HD10 / HD50

[27] = test system: NIH 3T3 cells; assay: Metabolic activity, MTS assay; format: cell-based, mouse; details: NIH 3T3 cells, MTS assay, 3 hours
Method in brief: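 Mouse NIH 3T3 fibroblast monolayers, about 5000 cells per well, washed and exposed to serially diluted peptoids in Hank's balanced salt solution. Metabolic activity read by MTS; average of six replicate trials.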

[28] = test system: MDR P. aeruginosa (polymyxin B resistant isolate); parameters: method as in PMID 19635950; details: MDR P. aeruginosa isolate most resistant to peptoid 1; cited from earlier work
[29] = test system: diabetic foot ulcer infection; parameters: method as in PMID 18310135; details: Phase III, diabetic foot ulcers; cited from earlier work
[30] = test system: bowel perforation and sepsis; parameters: method as in PMID 15294887; details: cited from earlier work

Molecule: [Mg+2] [Mg^2+]
- pIC50 [1]: 3.21

Molecule: ILRWPWWPWRRK-NH2 (C-terminus assumed) [MX-226, Omiganan, reference compound]
- number of pathogens with MIC ≤ 8 μg/mL ([2]; out of the 20 pathogens tested): none
- MIC ([3]; C623): 32 µg/mL
- MIC ([4]; 64771 (ESBL)): 64 µg/mL
- MIC ([5]; H1027 (MDR)): 64 µg/mL
- MIC ([6]; ATCC13637): 32 µg/mL
- MIC ([7]; mic80 (VRE)): 64 µg/mL
- MIC ([8]; 63103 (ESBL)): 64 µg/mL
- MIC ([9]; 213 (MDR)): 64 µg/mL
- MIC ([10]; H103 (wild type)): 32 µg/mL
- MIC ([11]; 218R Class C β-lactamase): 16 µg/mL
- MIC ([12]; ATCC25923): 16 µg/mL
- bound DPX displaced (maximum displacement) [13]: 73%
- pIC50 [13]: 5.30

Molecule: H-(NLys-Npm-Npm)4-NH2 [Peptoid 1ach]
- MIC ([14]; K. pneumonia 61962 (ESBL)): 128 µg/mL
- MIC ([3]; S. aureus C623 (MRSA)): 4 µg/mL
- MIC ([4]; E. coli 64771 (ESBL)): 8 µg/mL
- MIC ([5]; P. aeruginosa H1027 (MDR)): 2 µg/mL
- MIC ([15]; P. aeruginosa LES400 (MDR)): 4 µg/mL
- MIC ([16]; P. aeruginosa 9 (MDR)): 64 µg/mL
- MIC ([6]; P. maltophilia ATCC13637): 4 µg/mL
- MIC ([17]; E. faecalis W61950 (VRE)): 32 µg/mL
- MIC ([7]; E. faecium mic80 (VRE)): 4 µg/mL
- MIC ([8]; E. coli 63103 (ESBL)): 16 µg/mL
- MIC ([9]; P. aeruginosa 213 (MDR)): 8 µg/mL
- MIC ([18]; P. aeruginosa 198 (MDR)): 8 µg/mL
- MIC ([10]; P. aeruginosa H103 (wild type)): 4 µg/mL
- MIC ([19]; E. faecium T62764 (VRE)): 2 µg/mL
- MIC ([20]; E. faecalis ATCC29212): 8 µg/mL
- MIC ([11]; E. cloacae 218R Class C β-lactamase): 16 µg/mL
- MIC [21]: 64 µg/mL
- MIC ([12]; S. aureus ATCC25923): 4 µg/mL
- MIC ([22]; E. faecalis F43559 (VRE)): 32 µg/mL
- MIC ([23]; K. pneumonia 63575 (ESBL)): 64 µg/mL
- MIC E. coli [24]: 12.5 µM
- MIC B. subtilis [25]: 1.6 µM
- HD10 (hemolytic activity) [26]: 183
- HD50 (hemolytic activity) [26]: > 200
- ID50 (inhibitory dose, metabolic activity) [27]: 16 µM

Molecule: polymyxin B
- MIC [28]: 64 µg/mL
- bound DPX displaced (maximum displacement) [13]: 100%
- pIC50 [13]: 5.49

Molecule: GIGKFLKKAKKFGKAFVKILKK-NH2 (C-terminus assumed) [MSI-78, pexiganan, reference compound]
- patients in whom infection was eliminated or significantly reduced [29]: over 90%
- MICs, range against all Gram-positive strains tested [2]: 4 to 256 µg/mL
- median MIC against all Gram-positive strains tested [2]: 16 µg/mL
- MIC [14]: 32 µg/mL
- MIC ([3]; C623): 16 µg/mL
- MIC ([4]; 64771 (ESBL)): 2 µg/mL
- MIC ([5]; H1027 (MDR)): 2 µg/mL
- MIC ([15]; LES400 (MDR)): 4 µg/mL
- MIC ([16]; 9 (MDR)): 16 µg/mL
- MIC ([6]; ATCC13637): 2 µg/mL
- MIC ([17]; W61950 (VRE)): 256 µg/mL
- MIC ([7]; mic80 (VRE)): 4 µg/mL
- MIC ([8]; 63103 (ESBL)): 16 µg/mL
- MIC ([9]; 213 (MDR)): 8 µg/mL
- MIC ([18]; 198 (MDR)): 4 µg/mL
- MIC ([10]; H103 (wild type)): 1 µg/mL
- MIC ([19]; T62764 (VRE)): 8 µg/mL
- MIC ([20]; ATCC29212): 16 µg/mL
- MIC ([11]; 218R Class C β-lactamase): 2 µg/mL
- MIC ([12]; ATCC25923): 64 µg/mL
- MIC ([22]; F43559 (VRE)): 16 µg/mL
- MIC [23]: 8 µg/mL
- endotoxin plasma levels ([30]; rat model of sepsis): reduce endotoxin plasma levels
- reduction of bacterial counts ([30]; rat, caecal ligation and puncture model): four orders of magnitude
- bound DPX displaced (maximum displacement) [13]: 100%
- pIC50 [13]: 5.85
